The text below walks through data of ChEMBL document CHEMBL3991601, “The target landscape of clinical kinase drugs” (Science, 2017).

Active and inactive are the calls of the source. For most assays here, no stated cut-off is given here; in the data, actives have a measured Kd and inactives only a lower limit.

In test [1] the target is Cyclin-dependent kinase 2 (Homo sapiens, UniProt P24941).
In a further test the target is T1, Ephrin type-B receptor 4 (Homo sapiens, UniProt P54760).
T1 sequence (P54760 whole entry): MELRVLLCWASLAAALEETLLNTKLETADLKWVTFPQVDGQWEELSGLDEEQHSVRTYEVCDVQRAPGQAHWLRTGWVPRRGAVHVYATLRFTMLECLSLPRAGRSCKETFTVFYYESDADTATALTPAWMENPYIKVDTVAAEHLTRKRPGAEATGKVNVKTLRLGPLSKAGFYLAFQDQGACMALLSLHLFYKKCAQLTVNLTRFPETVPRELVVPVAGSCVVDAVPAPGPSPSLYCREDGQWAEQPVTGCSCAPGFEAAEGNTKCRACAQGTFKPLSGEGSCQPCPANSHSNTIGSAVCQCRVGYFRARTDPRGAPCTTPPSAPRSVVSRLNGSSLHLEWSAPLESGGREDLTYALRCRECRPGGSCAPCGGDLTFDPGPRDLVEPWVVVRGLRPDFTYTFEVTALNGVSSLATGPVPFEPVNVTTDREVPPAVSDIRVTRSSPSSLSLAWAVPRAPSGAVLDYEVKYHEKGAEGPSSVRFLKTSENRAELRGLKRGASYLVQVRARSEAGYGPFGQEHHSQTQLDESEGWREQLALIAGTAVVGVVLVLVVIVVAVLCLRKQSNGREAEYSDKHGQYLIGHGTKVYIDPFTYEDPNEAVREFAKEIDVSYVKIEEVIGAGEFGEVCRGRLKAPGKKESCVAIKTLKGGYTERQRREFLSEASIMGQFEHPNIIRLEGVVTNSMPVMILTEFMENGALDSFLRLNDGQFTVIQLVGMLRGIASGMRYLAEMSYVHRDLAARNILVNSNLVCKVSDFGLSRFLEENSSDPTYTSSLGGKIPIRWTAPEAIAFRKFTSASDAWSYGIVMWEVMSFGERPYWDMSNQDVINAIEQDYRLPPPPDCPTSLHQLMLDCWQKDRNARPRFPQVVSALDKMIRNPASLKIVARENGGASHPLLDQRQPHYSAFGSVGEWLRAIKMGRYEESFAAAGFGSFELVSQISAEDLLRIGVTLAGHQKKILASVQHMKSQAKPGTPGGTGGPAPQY

The target of test [2] is Dual specificity mitogen-activated protein kinase kinase 2 (Homo sapiens, UniProt P36507).
Sequence of Dual specificity mitogen-activated protein kinase kinase 2 (P36507 whole entry): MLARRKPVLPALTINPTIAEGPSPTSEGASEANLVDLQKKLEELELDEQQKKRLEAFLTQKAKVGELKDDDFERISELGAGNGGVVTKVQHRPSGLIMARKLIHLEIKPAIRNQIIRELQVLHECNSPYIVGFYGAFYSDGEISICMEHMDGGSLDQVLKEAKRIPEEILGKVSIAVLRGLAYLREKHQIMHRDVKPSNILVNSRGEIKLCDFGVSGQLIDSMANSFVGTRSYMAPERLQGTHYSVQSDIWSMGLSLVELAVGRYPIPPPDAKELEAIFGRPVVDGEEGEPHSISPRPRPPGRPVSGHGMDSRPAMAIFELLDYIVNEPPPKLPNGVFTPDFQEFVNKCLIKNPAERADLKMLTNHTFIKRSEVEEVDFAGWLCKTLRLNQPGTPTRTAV
Test [3] concerns the target Mitogen-activated protein kinase kinase kinase 4 (Homo sapiens, UniProt Q9Y6R4).
The target in another test is Myosin-10 (Homo sapiens, UniProt P35580).
Sequence of Myosin-10 (P35580 whole entry): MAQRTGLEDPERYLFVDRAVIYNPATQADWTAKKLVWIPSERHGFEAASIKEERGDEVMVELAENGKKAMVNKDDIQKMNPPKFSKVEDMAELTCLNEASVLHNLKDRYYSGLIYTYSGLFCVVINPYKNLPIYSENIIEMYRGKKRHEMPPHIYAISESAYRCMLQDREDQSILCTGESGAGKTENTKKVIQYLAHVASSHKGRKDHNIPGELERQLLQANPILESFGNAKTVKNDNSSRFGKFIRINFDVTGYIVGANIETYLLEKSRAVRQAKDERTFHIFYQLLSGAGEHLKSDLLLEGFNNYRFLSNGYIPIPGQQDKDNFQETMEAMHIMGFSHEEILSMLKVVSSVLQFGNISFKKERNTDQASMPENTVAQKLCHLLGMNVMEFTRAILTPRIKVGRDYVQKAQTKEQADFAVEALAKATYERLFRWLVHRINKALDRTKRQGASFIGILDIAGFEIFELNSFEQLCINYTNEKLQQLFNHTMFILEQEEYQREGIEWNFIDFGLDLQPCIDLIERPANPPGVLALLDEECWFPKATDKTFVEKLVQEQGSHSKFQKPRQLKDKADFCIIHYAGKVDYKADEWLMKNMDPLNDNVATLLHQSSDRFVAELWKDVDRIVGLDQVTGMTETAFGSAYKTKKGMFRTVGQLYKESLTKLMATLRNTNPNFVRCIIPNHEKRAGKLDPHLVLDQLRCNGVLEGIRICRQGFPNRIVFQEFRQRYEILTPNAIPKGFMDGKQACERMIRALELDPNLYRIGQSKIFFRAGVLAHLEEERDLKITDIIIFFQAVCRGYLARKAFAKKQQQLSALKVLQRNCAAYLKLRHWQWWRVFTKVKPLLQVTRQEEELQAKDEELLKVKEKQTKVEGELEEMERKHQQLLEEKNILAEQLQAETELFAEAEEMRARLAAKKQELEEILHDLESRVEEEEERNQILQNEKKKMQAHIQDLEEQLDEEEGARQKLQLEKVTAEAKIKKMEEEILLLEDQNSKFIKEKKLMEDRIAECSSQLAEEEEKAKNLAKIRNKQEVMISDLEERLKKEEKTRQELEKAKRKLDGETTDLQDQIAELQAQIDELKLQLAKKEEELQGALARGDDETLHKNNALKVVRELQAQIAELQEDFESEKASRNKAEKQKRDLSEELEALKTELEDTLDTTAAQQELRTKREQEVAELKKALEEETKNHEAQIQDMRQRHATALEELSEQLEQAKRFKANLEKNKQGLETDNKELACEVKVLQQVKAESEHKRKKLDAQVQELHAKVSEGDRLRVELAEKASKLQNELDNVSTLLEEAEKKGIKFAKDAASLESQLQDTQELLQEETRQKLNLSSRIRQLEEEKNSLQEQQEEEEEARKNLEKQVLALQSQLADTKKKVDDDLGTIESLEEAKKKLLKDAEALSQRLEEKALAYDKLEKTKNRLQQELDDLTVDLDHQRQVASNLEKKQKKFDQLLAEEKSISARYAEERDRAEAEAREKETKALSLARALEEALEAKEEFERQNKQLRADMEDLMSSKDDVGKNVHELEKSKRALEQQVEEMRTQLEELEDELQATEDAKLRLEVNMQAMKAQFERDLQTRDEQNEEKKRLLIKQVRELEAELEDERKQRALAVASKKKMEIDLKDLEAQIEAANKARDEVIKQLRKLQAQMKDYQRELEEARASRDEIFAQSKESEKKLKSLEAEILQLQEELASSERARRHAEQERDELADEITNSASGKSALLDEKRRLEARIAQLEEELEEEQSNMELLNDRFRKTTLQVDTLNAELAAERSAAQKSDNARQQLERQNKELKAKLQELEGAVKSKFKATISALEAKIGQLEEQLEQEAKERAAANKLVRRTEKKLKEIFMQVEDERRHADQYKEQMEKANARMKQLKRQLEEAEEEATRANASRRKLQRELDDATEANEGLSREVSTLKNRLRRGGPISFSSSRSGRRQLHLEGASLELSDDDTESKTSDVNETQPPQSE
Test [4] deals with cAMP-dependent protein kinase catalytic subunit alpha (Homo sapiens, UniProt P17612).
Test [5] addresses T2, Serine/threonine-protein kinase D2 (Homo sapiens, UniProt Q9BZL6).
T2 sequence (Q9BZL6 whole entry): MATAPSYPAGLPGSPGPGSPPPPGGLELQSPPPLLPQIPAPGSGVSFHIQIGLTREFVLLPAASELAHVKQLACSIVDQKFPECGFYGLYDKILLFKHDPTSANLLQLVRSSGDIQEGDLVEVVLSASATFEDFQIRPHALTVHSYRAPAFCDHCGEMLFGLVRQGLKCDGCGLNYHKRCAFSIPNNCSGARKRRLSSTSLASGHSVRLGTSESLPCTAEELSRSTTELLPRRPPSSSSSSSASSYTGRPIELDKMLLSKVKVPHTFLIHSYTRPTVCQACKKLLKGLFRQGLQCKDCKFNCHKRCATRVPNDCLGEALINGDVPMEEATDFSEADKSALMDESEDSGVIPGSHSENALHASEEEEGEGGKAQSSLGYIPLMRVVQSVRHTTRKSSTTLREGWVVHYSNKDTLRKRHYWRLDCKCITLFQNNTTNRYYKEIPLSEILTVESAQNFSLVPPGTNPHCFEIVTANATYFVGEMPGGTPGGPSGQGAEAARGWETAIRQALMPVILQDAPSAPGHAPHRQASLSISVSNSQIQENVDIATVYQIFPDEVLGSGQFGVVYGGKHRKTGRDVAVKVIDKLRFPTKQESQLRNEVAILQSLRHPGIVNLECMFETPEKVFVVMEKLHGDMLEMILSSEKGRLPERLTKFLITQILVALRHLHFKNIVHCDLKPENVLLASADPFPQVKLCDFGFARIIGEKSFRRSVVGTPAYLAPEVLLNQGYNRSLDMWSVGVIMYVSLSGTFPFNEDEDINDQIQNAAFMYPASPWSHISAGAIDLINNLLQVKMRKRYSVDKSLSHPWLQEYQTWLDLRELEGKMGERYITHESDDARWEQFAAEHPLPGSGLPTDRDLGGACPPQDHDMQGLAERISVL

Test [6] concerns the target Protein-tyrosine kinase 6 (Homo sapiens, UniProt Q13882).
Test [7] deals with T3, Serine/threonine-protein kinase 4 (Homo sapiens, UniProt Q13043).
T3 sequence (Q13043 whole entry): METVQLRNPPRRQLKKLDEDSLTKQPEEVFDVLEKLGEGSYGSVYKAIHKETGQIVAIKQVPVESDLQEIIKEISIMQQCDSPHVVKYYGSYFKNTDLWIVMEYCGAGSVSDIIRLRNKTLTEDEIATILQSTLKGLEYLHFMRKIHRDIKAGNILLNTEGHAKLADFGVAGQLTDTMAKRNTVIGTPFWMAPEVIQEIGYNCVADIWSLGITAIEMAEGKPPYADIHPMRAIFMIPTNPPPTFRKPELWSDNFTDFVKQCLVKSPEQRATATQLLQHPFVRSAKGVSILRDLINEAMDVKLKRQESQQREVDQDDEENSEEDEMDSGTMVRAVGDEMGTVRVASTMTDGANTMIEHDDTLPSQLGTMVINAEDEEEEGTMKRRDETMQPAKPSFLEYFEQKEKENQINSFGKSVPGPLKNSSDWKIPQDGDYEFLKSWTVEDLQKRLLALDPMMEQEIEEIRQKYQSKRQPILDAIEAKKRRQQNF

Sequence of Protein-tyrosine kinase 6 (Q13882 whole entry): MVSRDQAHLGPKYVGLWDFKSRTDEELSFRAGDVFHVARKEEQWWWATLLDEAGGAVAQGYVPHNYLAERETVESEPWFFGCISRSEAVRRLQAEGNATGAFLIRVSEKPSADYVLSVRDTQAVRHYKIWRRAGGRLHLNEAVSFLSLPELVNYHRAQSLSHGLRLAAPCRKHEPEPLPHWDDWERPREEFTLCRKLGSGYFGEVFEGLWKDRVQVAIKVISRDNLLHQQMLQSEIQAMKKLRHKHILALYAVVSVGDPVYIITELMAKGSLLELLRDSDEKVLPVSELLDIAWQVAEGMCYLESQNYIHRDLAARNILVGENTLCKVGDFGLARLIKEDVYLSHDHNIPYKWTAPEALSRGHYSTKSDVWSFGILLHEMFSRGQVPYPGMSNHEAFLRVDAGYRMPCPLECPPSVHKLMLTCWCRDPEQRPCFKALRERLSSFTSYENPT
Sequence of Mitogen-activated protein kinase kinase kinase 4 (Q9Y6R4 whole entry): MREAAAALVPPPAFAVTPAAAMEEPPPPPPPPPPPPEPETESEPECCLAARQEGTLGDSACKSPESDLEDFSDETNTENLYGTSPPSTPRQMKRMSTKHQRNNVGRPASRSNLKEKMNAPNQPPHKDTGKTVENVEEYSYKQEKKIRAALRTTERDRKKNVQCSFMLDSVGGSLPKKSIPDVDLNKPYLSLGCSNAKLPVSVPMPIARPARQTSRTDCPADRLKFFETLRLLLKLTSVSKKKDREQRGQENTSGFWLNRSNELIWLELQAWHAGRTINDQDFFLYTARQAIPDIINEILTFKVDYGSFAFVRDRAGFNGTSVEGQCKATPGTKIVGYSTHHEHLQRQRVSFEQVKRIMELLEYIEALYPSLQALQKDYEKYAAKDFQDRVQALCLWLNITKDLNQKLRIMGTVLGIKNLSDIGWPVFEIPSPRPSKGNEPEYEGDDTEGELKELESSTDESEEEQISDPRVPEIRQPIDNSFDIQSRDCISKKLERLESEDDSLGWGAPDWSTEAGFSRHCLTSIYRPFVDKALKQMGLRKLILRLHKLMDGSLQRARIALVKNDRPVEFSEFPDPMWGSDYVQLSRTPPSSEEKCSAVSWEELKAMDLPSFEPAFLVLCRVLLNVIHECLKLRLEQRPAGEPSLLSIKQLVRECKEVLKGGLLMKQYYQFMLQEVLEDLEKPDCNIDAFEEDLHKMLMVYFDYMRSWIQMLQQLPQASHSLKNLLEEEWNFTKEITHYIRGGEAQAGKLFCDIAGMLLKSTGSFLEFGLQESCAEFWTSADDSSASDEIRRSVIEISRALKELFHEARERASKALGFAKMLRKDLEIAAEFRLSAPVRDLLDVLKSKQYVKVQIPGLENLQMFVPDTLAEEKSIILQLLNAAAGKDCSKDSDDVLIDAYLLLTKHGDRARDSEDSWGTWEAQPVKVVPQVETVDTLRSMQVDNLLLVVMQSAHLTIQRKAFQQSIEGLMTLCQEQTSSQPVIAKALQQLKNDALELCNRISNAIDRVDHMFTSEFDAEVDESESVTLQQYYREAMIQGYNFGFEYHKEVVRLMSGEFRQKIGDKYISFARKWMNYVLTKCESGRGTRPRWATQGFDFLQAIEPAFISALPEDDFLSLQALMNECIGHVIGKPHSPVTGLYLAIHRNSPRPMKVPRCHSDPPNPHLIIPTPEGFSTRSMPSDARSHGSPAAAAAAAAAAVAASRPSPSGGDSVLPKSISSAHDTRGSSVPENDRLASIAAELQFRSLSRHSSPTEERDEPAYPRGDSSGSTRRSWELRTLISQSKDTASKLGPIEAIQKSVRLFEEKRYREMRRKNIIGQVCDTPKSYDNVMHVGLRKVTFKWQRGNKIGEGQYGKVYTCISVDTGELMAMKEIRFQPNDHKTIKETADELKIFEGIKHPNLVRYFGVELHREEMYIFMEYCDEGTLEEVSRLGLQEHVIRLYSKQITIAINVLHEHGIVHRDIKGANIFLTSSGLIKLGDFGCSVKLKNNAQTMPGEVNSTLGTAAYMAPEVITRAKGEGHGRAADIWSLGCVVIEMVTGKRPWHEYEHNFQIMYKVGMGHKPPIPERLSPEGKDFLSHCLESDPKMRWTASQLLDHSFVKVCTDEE

As to `FC(F)(F)c1ccc(/C=C/c2nc(COc3ccc(CCCCn4ccnn4)cc3)co2)cc1` [MUBRITINIB], the Kd (in [1]; at Ephrin type-B receptor 4; in test [2]; in test [3]; on Myosin-10; in test [4]) was > 30 µM (inactive) throughout. Moreover, the Kd in test [5], in test [6] and in [7] was > 30 µM (inactive) each time.
Turning to `COc1ncc(-c2ccc3nccc(-c4ccnnc4)c3c2)cc1NS(=O)(=O)c1ccc(F)cc1F` [OMIPALISIB], the Kd (in [1]; at Ephrin type-B receptor 4; in [2]; in [3]; on Myosin-10; in test [4]) was > 30 µM (inactive) in each case. Also, the Kd in [5], in test [6] and in test [7] was > 30 µM (inactive) each time.
Regarding `CCCCCCCCCCCCCCCCCCOP(=O)([O-])OC1CC[N+](C)(C)CC1` [PERIFOSINE], the Kd (in test [1]; at Ephrin type-B receptor 4; in test [2]; in [3]; on Myosin-10; in test [4]) was > 30 µM (inactive) each time. Moreover, the Kd in test [5], in test [6] and in [7] was > 30 µM (inactive) in each case.
Regarding `Cc1cnc(NC(=O)Nc2cc(Br)c(C)cc2OC[C@@H]2CNCCO2)cn1` [RABUSERTIB], the Kd (in test [1]; on Ephrin type-B receptor 4; in test [2]; in test [3]; on Myosin-10; in [4]) was > 30 µM (inactive) throughout. Also, the Kd in test [5], in test [6] and in [7] was > 30 µM (inactive) in each case.
Regarding `CO[C@H]1C[C@@H]2CC[C@@H](C)[C@@](O)(O2)C(=O)C(=O)N2CCCC[C@H]2C(=O)O[C@H]([C@H](C)C[C@@H]2CC[C@@H](OP(C)(C)=O)[C@H](OC)C2)CC(=O)[C@H](C)/C=C(\C)[C@@H](O)[C@@H](OC)C(=O)[C@H](C)C[C@H](C)/C=C/C=C/C=C/1C` [RIDAFOROLIMUS], the Kd (in test [1]; at Ephrin type-B receptor 4; in test [2]; in test [3]; on Myosin-10; in [4]) was > 30 µM (inactive) each time. The Kd in test [5], in test [6] and in [7] was > 30 µM (inactive) in each case.
For the molecule `N#CC1(c2ccc(NC(=O)c3cccnc3NCc3ccncc3)cc2)CCCC1` [RIVOCERANIB], the Kd (in test [1]; on Ephrin type-B receptor 4; in test [2]; in test [3]; on Myosin-10; in test [4]) was > 30 µM (inactive) in each case. Moreover, the Kd in test [5], in test [6] and in test [7] was > 30 µM (inactive) throughout.
In the case of `CN1CCN(CCOc2cc(OC3CCOCC3)c3c(Nc4c(Cl)ccc5c4OCO5)ncnc3c2)CC1` [SARACATINIB], the Kd (in general, the free concentration of one partner at which half of the binding sites on the other are occupied at equilibrium, for simple one-to-one binding) is > 30 µM (inactive) in test [1]; 3.88 µM (active) at Ephrin type-B receptor 4; > 30 µM (inactive) in test [2]; > 30 µM (inactive) in test [3]; > 30 µM (inactive) at Myosin-10; > 30 µM (inactive) in [4]. The Kd was > 30 µM (inactive) in [5], 0.566 µM in [6] and > 30 µM (inactive) in test [7].
For `Cn1cc(-c2cnn3c(N)c(Br)c([C@@H]4CCCNC4)nc23)cn1` [SCH-900776], the Kd is > 30 µM (inactive) in test [1]; > 30 µM (inactive) on Ephrin type-B receptor 4; 2.36 µM (active) in test [2]; > 30 µM (inactive) in test [3]; > 30 µM (inactive) on Myosin-10; > 30 µM (inactive) in test [4]. Further, the Kd in [5] was 6.41 µM (active); in [6], > 30 µM (inactive); in test [7], > 30 µM (inactive).
Take `CO[C@H]1C[C@@H]2CC[C@@H](C)[C@@](O)(O2)C(=O)C(=O)N2CCCC[C@H]2C(=O)O[C@H]([C@H](C)C[C@@H]2CC[C@@H](O)[C@H](OC)C2)CC(=O)[C@H](C)/C=C(\C)[C@@H](O)[C@@H](OC)C(=O)[C@H](C)C[C@H](C)/C=C/C=C/C=C/1C` [SIROLIMUS]: the Kd (in test [1]; at Ephrin type-B receptor 4; in test [2]; in test [3]; on Myosin-10; in test [4]) was > 30 µM (inactive) each time. In addition, the Kd in [5], in [6] and in test [7] was > 30 µM (inactive) each time.
Take `CO[C@H]1C[C@@H]2CC[C@@H](C)[C@@](O)(O2)C(=O)C(=O)N2CCCC[C@H]2C(=O)O[C@H]([C@H](C)C[C@@H]2CC[C@@H](OC(=O)C(C)(CO)CO)[C@H](OC)C2)CC(=O)[C@H](C)/C=C(\C)[C@@H](O)[C@@H](OC)C(=O)[C@H](C)C[C@H](C)/C=C/C=C/C=C/1C` [TEMSIROLIMUS]: the Kd (in test [1]; on Ephrin type-B receptor 4; in test [2]; in test [3]; at Myosin-10; in [4]) was > 30 µM (inactive) throughout. The Kd in [5], in test [6] and in [7] was > 30 µM (inactive) throughout.
Take `COc1cc2c(Nc3ccc(Cl)c(Cl)c3F)ncnc2cc1OC[C@@H]1C[C@@H]2CN(C)C[C@@H]2C1` [TESEVATINIB]: the Kd in test [1] was > 30 µM (inactive); on Ephrin type-B receptor 4, 0.037 µM (active); in test [2], > 30 µM (inactive); in test [3], > 30 µM (inactive); on Myosin-10, > 30 µM (inactive); in [4] it was > 30 µM (inactive). For the same molecule, the Kd was > 30 µM (inactive) in [5], 0.172 µM (active) in [6] and > 30 µM (inactive) in test [7].
